Source: patent publication US8791123B2, “Substituted pyrazolo[1,5-a]pyrimidine compounds as Trk kinase inhibitors” (Array Biopharma, Inc., priority 2009, dated 2014)
Where a name gives a salt, the structure may show the parent alone. Read-outs that look alike come from different tables or passages of the source.

Tests used:
[1] = biological target: TrkA (histidine-tagged recombinant human TrkA, cytoplasmic domain) (Homo sapiens (Human), UniProt P04629); assay: TrkA ELISA Assay; assay type: biochemical; settings: Table 1; ELISA, 500 μM ATP; read-out: TrkA Enzyme IC50
Procedure: An enzyme-linked immunosorbant assay (ELISA) was used to assess TrkA kinase activity in the presence of inhibitors. Immulon 4HBX 384-well microtiter plates (Thermo part #8755) were coated with a 0.025 mg/mL solution of poly (Glu, Ala, Tyr; 6:3:1; Sigma P3899). […] The reaction mixture was removed from the plate by washing with PBS containing 0.1% (v/v) Tween 20. The phosphorylated reaction product was detected using 0.2 μg/mL of a phosphotyrosine specific monoclonal antibody (clone PY20) conjugated to horseradish peroxidase in conjunction with the TMB Peroxidase Substrate System (KPL). After the addition of 1M phosphoric acid, the chromogenic substrate color intensity was quantitated via absorbance at 450 nm.

Human Jak2 kinase domain = Human Jak2 kinase domain (Homo sapiens (Human), UniProt O60674); assay: Jak2 Inhibition Assay (Omnia kinase assay); assay type: biochemical; settings: read-out: Jak2 Enzyme IC50
Procedure: The assays described in Examples C, D, E and F for the determination of JAK1, JAK2, JAK3 and Tyk2 kinase activity, respectively, utilized the Omnia® Kinase fluorescence peptide substrate-based technology (Invitrogen). […] The reactions were therefore read at excitation 360 nm and emission was measured at 485 nm every 50 seconds for 45 minutes using a PerkinElmer EnVision Multilabel Plate Reader.
The final buffer conditions for each of the JAK1, JAK2, JAK3 and Tyk2 assays were as follows: 25 mM HEPES, pH 7.4, 10 mM MgCl2, 0.01% Triton X-100 and 1 mM DTT.
Two-μL aliquots of these were transferred to a fresh plate for a ten-fold intermediate dilution with assay buffer. Five-μL aliquots of the diluted compounds were then transferred to 20-μL of assay mixtures described in Examples C, D, E and F for a final concentration of DMSO of 2%. […] For each plate, percent of control (POC) values were calculated for each well according to the following equation:
[formula] • where • Xmax=Average Uninhibited Controls • Xmin=Average Background IC50's were estimated from the POC's using a standard 4-parameter logistic model:
[formula] • where • A=Minimum Y (Bottom Asymptote) • B=Maximum Y (Top Asymptote) • C=EC50 • D=Slope Factor • X=Compound Concentration (nM) • Y=POC
The IC50 is defined as the concentration of inhibitor at which the POC equals 50 for the fitted curve.
Compounds of Formula I were screened for their ability to inhibit Jak2 using the general enzyme inhibition assay method, in which the assay mixture contained 500 μM ATP, 10 μM Omnia® Y7 peptide (Catalog # IVGN KNZ3071C, Invitrogen Corporation, Carlsbad, Calif.) and 4 nM Jak2 in a total volume of 20 μL. Human Jak2 kinase domain comprising amino acids 808-1132 was purchased from Invitrogen Corporation, Carlsbad, Calif. (catalog # IVGN PV4210).

[2] = Table 1, 500 μM ATP, >1000 nM when >50% inhibition not observed at 1000 nM

Sequence of Human Jak2 kinase domain (O60674 808-1132): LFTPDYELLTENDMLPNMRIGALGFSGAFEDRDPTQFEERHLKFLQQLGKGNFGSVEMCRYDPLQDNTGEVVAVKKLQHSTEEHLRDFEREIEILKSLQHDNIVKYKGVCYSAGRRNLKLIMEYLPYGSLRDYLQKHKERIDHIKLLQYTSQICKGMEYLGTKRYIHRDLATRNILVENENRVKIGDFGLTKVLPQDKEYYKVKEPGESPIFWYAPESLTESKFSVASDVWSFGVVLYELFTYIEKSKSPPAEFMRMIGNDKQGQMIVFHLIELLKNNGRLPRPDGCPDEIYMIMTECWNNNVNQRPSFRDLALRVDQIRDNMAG
Sequence of TrkA (histidine-tagged recombinant human TrkA, cytoplasmic domain) (P04629 440-796): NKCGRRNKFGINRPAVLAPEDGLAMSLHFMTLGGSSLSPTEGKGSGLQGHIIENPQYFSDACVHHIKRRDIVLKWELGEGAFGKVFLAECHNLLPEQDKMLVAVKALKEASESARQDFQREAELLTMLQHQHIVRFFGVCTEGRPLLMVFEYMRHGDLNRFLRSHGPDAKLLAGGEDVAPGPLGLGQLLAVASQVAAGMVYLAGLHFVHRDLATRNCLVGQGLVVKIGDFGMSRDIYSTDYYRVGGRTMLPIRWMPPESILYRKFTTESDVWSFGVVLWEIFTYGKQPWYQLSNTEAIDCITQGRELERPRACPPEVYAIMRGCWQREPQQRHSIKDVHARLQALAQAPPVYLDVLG

SMILES | IC50 [1] | IC50 (Human Jak2 kinase domain; [2]) | IC50 (Human Jak2 kinase domain)
O=C(N[C@H]1CC[C@H](O)CC1)c1cnn2ccc(N3CCC[C@@H]3c3cccc(F)c3)nc12 [Example 35, 5-((R)-2-(3-fluorophenyl)pyrrolidin-1-yl)-N-((trans)-4-hydroxycyclohexyl)pyrazolo[1,5-a]pyrimidine-3-carboxamide] | 1.2 nM | 278 nM | 
CC(C)(C)NC(=O)c1cnn2ccc(N3CCC[C@@H]3c3cccc(F)c3)nc12 [Example 36, (R)—N-tert-butyl-5-(2-(3-fluorophenyl)pyrrolidin-1-yl)pyrazolo[1,5-a]pyrimidine-3-carboxamide] | 2.1 nM | > 1000 nM | 
O=C(NC1CC1)c1cnn2ccc(N3CCC[C@@H]3c3cccc(F)c3)nc12 [Example 37, (R)—N-cyclopropyl-5-(2-(3-fluorophenyl)pyrrolidin-1-yl)pyrazolo[1,5-a]pyrimidine-3-carboxamide] | 1.65 nM | > 1000 nM | 
CC(C)(C)NC(=O)c1cnn2ccc(N3C[C@H](O)C[C@@H]3c3cccc(F)c3)nc12 [Example 42, N-tert-butyl-5-((2R,4R)-2-(3-fluorophenyl)-4-hydroxypyrrolidin-1-yl)pyrazolo[1,5-a]pyrimidine-3-carboxamide] | 48.3 nM | > 1000 nM | 
CNC(=O)c1cnn2ccc(N3C[C@H](O)C[C@@H]3c3cccc(F)c3)nc12 [Example 43, 5-((2R,4R)-2-(3-fluorophenyl)-4-hydroxypyrrolidin-1-yl)-N-methylpyrazolo[1,5-a]pyrimidine-3-carboxamide] | 139 nM | > 1000 nM | 
COc1ccc(F)cc1[C@H]1CCCN1c1ccn2ncc(C(=O)NC3CC3)c2n1 [Example 48, (R)—N-cyclopropyl-5-(2-(5-fluoro-2-methoxyphenyl)pyrrolidin-1-yl)pyrazolo[1,5-a]pyrimidine-3-carboxamide] | 0.6 nM |  | 429 nM
CC(C)(C)NC(=O)c1cnn2ccc(N3CCC[C@@H]3c3cncc(F)c3)nc12 [Example 53, (R)—N-tert-butyl-5-(2-(5-fluoropyridin-3-yl)pyrrolidin-1-yl)pyrazolo[1,5-a]pyrimidine-3-carboxamide] | 10.4 nM | > 1000 nM | 
COc1ccc(F)cc1[C@H]1CCCN1c1ccn2ncc(C(=O)NCCN3CCOCC3)c2n1 [Example 54, (R)-5-(2-(5-fluoro-2-methoxyphenyl)pyrrolidin-1-yl)-N-(2-morpholinoethyl)pyrazolo[1,5-a]pyrimidine-3-carboxamide] | 2.25 nM |  | > 1000 nM
COc1ccc(F)cc1[C@H]1CCCN1c1ccn2ncc(C(=O)NC[C@H](O)CO)c2n1 [Example 55, N—((S)-2,3-dihydroxypropyl)-5-((R)-2-(5-fluoro-2-methoxyphenyl)pyrrolidin-1-yl)pyrazolo[1,5-a]pyrimidine-3-carboxamide] | 1 nM |  | > 1000 nM
O=C(N[C@@H]1CCNC[C@@H]1F)c1cnn2ccc(N3CCC[C@@H]3c3cc(F)ccc3F)nc12 [Example 61, 5-((R)-2-(2,5-difluorophenyl)pyrrolidin-1-yl)-N-((3S,4R)-3-fluoropiperidin-4-yl)pyrazolo[1,5-a]pyrimidine-3-carboxamide hydrochloride] | 1.95 nM |  | 699 nM

Next, values leading:

IC50 [1] | IC50 (Human Jak2 kinase domain; [2]) | IC50 (Human Jak2 kinase domain) | SMILES
0.6 nM | 257 nM |  | O=C(NC1CCOCC1)c1cnn2ccc(N3CCC[C@@H]3c3cc(F)ccc3F)nc12 [Example 20, (R)-5-(2-(2,5-difluorophenyl)pyrrolidin-1-yl)-N-(tetrahydro-2H-pyran-4-yl)pyrazolo[1,5-a]pyrimidine-3-carboxamide]
2.95 nM | > 1000 nM |  | Cn1cnc(CNC(=O)c2cnn3ccc(N4CCC[C@@H]4c4cc(F)ccc4F)nc23)c1 [Example 21, (R)-5-(2-(2,5-difluorophenyl)pyrrolidin-1-yl)-N-((1-methyl-1H-imidazol-4-yl)methyl)pyrazole[1,5-a]pyrimidine-3-carboxamide]
2.1 nM | > 1000 nM |  | Cn1cc(CNC(=O)c2cnn3ccc(N4CCC[C@@H]4c4cc(F)ccc4F)nc23)cn1 [Example 22, (R)-5-(2-(2,5-difluorophenyl)pyrrolidin-1-yl)-N-((1-methyl-1H-pyrazol-4-yl)methyl)pyrazolo[1,5-a]pyrimidine-3-carboxamide]
3.6 nM | > 1000 nM |  | O=C(NCCN1CCNC1=O)c1cnn2ccc(N3CCC[C@@H]3c3cc(F)ccc3F)nc12 [Example 24, (R)-5-(2-(2,5-difluorophenyl)pyrrolidin-1-yl)-N-(2-(2-oxoimidazolidin-1-yl)ethyl) pyrazole[1,5-a]pyrimidine-3-carboxamide]
0.4 nM | > 1000 nM |  | O=C(NCCc1c[nH]cn1)c1cnn2ccc(N3CCC[C@@H]3c3cc(F)ccc3F)nc12 [Example 25, (R)—N-(2-(1H-imidazol-4-yl)ethyl)-5-(2-(2,5-difluorophenyl)pyrrolidin-1-yl)pyrazolo[1,5-a]pyrimidine-3-carboxamide]
1.3 nM | > 1000 nM |  | O=C(NC[C@@H](O)CO)c1cnn2ccc(N3CCC[C@@H]3c3cc(F)ccc3F)nc12 [Example 26, 5-((R)-2-(2,5-difluorophenyl)pyrrolidin-1-yl)-N—((R)-2,3-dihydroxypropyl)pyrazolo[1,5-a]pyrimidine-3-carboxamide]
214 nM | > 1000 nM |  | CN(C)C(=O)c1cnn2ccc(N3CCC[C@@H]3c3cc(F)ccc3F)nc12 [Example 27, (R)-5-(2-(2,5-difluorophenyl)pyrrolidin-1-yl)-N,N-dimethylpyrazolo[1,5-a]pyrimidine-3-carboxamide]
2.8 nM | > 1000 nM |  | O=C(NCCn1ccnc1)c1cnn2ccc(N3CCC[C@@H]3c3cc(F)ccc3F)nc12 [Example 28, (R)—N-(2-(1H-imidazol-1-yl)ethyl)-5-(2-(2,5-difluorophenyl)pyrrolidin-1-yl)pyrazolo[1,5-a]pyrimidine-3-carboxamide]
1.3 nM | > 1000 nM |  | O=C(NC[C@H](O)CO)c1cnn2ccc(N3CCC[C@@H]3c3cc(F)ccc3F)nc12 [Example 29, 5-((R)-2-(2,5-difluorophenyl)pyrrolidin-1-yl)-N—((S)-2,3-dihydroxypropyl)pyrazolo[1,5-a]pyrimidine-3-carboxamide]
5.3 nM | > 1000 nM |  | CC1(O)CN(C(=O)c2cnn3ccc(N4CCC[C@@H]4c4cc(F)ccc4F)nc23)C1 [Example 32, (R)-(5-(2-(2,5-difluorophenyl)pyrrolidin-1-yl)pyrazolo[1,5-a]pyrimidin-3-yl)(3-hydroxy-3-methylazetidin-1-yl)methanone]
1.3 nM |  | > 1000 nM | CC(C)(C#N)NC(=O)c1cnn2ccc(N3CCC[C@@H]3c3cc(F)ccc3F)nc12 [Example 38, (R)—N-(2-cyanopropan-2-yl)-5-(2-(2,5-difluorophenyl)pyrrolidin-1-yl)pyrazolo[1,5-a]pyrimidine-3-carboxamide]
0.8 nM | > 1000 nM |  | CC(C)(CF)NC(=O)c1cnn2ccc(N3CCC[C@@H]3c3cc(F)ccc3F)nc12 [Example 40, (R)-5-(2-(2,5-difluorophenyl)pyrrolidin-1-yl)-N-(1-fluoro-2-methylpropan-2-yl)pyrazolo[1,5-a]pyrimidine-3-carboxamide]
1.5 nM |  | > 1000 nM | NS(=O)(=O)CCNC(=O)c1cnn2ccc(N3CCC[C@@H]3c3cc(F)ccc3F)nc12 [Example 47, (R)-5-(2-(2,5-difluorophenyl)pyrrolidin-1-yl)-N-(2-sulfamoylethyl)pyrazolo[1,5-a]pyrimidine-3-carboxamide]
2.4 nM |  | > 1000 nM | COc1ccc(F)cc1[C@H]1CCCN1c1ccn2ncc(C(=O)NC[C@@H](O)CO)c2n1 [Example 56, N—((R)-2,3-dihydroxypropyl)-5-((R)-2-(5-fluoro-2-methoxyphenyl)pyrrolidin-1-yl)pyrazolo[1,5-a]pyrimidine-3-carboxamide]
9.4 nM | > 1000 nM |  | CC(C)(N)CNC(=O)c1cnn2ccc(N3CCC[C@@H]3c3cc(F)ccc3F)nc12 [Example 58, (R)—N-(2-amino-2-methylpropyl)-5-(2-(2,5-difluorophenyl)pyrrolidin-1-yl)pyrazolo[1,5-a]pyrimidine-3-carboxamide]
